Data from ChEMBL document CHEMBL1130087, “Phosphodiester amidates of unsaturated nucleoside analogues: synthesis and anti-HIV activity” (J Med Chem, 1997).

What was measured:
liver esterase = assay: Half-life catalyzed by Pig Liver Esterase; assay type: ADME, Sus scrofa
ATH-8 cell line = assay: tested for cytotoxicity of HIV-1 replication in ATH-8 cells; assay type: functional, Homo sapiens
[1] = target: Human immunodeficiency virus 1; assay: tested for its anti-HIV activity.

Row | SMILES | half-life (liver esterase) [h] | EC50 [1] [µM] | Cytotoxicity (ATH-8 cell line) [µM]
1 | COC(=O)C(C)NP(=O)(OCC=C=Cn1cnc2c(N)ncnc21)Oc1ccccc1 (configuration not stated) | 7.3 | – | –
2 | COC(=O)C(C)NP(=O)(OCC=C=Cn1cnc2c(O)ncnc21)Oc1ccccc1 (configuration not stated) | 8.5 | – | –
3 | COC(=O)C(C)NP(=O)(OC/C=C\Cn1cnc2c(O)ncnc21)Oc1ccccc1 (configuration not stated) | 58.3 | – | –
4 | Nc1ncnc2c1ncn2C/C=C/CCOCP(=O)(O)O | – | 9 | –

Continued, in another order:

Row | half-life (liver esterase) [h] | EC50 [1] [µM] | SMILES | Cytotoxicity (ATH-8 cell line) [µM]
5 | 57.1 | – | COC(=O)C(C)NP(=O)(OC/C=C/Cn1cnc2c(N)ncnc21)Oc1ccccc1 (configuration not stated) | >10
6 | 43.5 | – | COC(=O)C(C)NP(=O)(OC/C=C\Cn1cnc2c(N)ncnc21)Oc1ccccc1 (configuration not stated) | –
